According to PMC4111603 (PLoS ONE, 2014):

Tests used:
[1] = cited from earlier work
Ovine COX-1 = target: T1, Ovine COX-1 (Ovis aries, UniProt P05979); experiment: COX-1 oxygenation of arachidonic acid, oxygen electrode; format: biochemical; conditions: for COX-1 activity (% of control): 10 µM AA, initial activity 10-30 s, mean ± s.e.m., n = 3; for inhibition at 300 µM: 300 µM compound
T1 construct: purchased Cayman Chemical Co. 60100
T1 sequence (P05979 25-600): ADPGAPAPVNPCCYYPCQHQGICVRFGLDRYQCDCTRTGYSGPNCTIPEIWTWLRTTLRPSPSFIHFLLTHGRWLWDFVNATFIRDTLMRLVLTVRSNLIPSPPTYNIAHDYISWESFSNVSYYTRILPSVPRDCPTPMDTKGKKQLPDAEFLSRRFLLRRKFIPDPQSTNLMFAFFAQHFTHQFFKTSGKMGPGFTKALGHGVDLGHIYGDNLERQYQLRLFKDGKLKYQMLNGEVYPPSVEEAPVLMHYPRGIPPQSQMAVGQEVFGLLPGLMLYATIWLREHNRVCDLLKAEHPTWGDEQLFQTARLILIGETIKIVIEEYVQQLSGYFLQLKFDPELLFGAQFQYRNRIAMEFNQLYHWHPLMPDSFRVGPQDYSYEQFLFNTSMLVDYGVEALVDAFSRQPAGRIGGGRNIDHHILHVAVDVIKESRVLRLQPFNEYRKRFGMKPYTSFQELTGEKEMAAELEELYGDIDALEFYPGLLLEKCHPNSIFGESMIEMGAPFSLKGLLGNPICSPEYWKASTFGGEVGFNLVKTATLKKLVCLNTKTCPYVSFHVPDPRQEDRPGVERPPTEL
Method: The assay was performed according to Meade et al. with minor modifications using an oxygen electrode chamber with integral stirring (Oxygraph System, Hansatech Instruments, King’s Lynn, U.K.). The electrode was calibrated to ambient temperature and air pressure. Samples were prepared in 0.1 M Tris-HCl buffer pH 7.4 containing 1 µM haematin, 2 mM phenol, 5 mM EDTA, 10 µM substrate (AA or 2-AG) (final assay volume was 2 ml). After addition of test substance dissolved in DMSO (final assay concentration 1%) a baseline was established for 5 min before initiation of reaction by addition of 200 units COX-1 or COX-2. Change in oxygen consumption was monitored for approximately 5 min.
FAAH inhibition was calculated using log(inhibitor) vs. response with variable slope (four parameters) algorithm in the GraphPad Prism computer program (GraphPad Software Inc., San Diego, CA. USA). […] The two curves were compared by Akaike’s informative criteria and the best fit was chosen. Initial COX activities were calculated as the change in oxygen tension between 10 and 30 seconds after addition of enzyme.

[2] = read-out: inhibition of COX-1-catalysed oxygenation of arachidonic acid

Row | Compound | share of the dose recovered in the urine ([1]; flurbiprofen 50 mg a day for 10 consecutive days) | COX-1 activity (% of control) (Ovine COX-1; 100 µM NSAID) | inhibition at 100 µM (Ovine COX-1; 100 µM compound, read-out: inhibition of COX-1-catalysed oxygenation of arachidonic acid) | COX-1 activity (% of control) (Ovine COX-1; 300 µM NSAID) | inhibition at 300 µM (Ovine COX-1; [2]) | COX-1 activity (% of control) (Ovine COX-1; 1000 µM NSAID) | inhibition at 1000 µM (Ovine COX-1; 1000 µM compound, read-out: inhibition of COX-1-catalysed oxygenation of arachidonic acid) | urinary recovery ([1]; 24 h after administration of 400 mg of ibuprofen)
1 | CC(C(=O)O)c1ccc(-c2ccc(O)cc2)c(F)c1 (stereo not shown) [4′-OH-Flurbiprofen] | 43% | 97±31 % of control | 3% | 72±20 % of control | 28% | 6±6 % of control | 94% | 
2 | CC(CO)Cc1ccc(C(C)C(=O)O)cc1 (stereo not shown) [3′-OH-Ibuprofen, 2-[4-(3-hydroxy-2-methylpropyl)phenyl]propionic acid] |  | 81±16 % of control |  | 97±10 % of control | 3% | 68±15 % of control |  | 
3 | CC(C(=O)O)c1ccc(CC(C)(C)O)cc1 (stereo not shown) [2′-OH-Ibuprofen, 2-[4-(2-hydroxy-2-methylpropyl)phenyl]propionic acid] |  | 102±17 % of control |  | 91±5 % of control | 9% | 95±3 % of control |  | 23%
